Marks after values point to notes of the source that are not given here.
Assays:
[1] = test system: Min/+ mouse model of intestinal cancer; assay: Intestinal polyp formation in the Min/+ mouse model of intestinal cancer; format: in vivo; parameters: Avg. large intestine tumor size: unit not given here; settings: Min/+ mice; for effect on polyp number relative to the US17 control: differences not significant; for Total small intestine tumors/group / Avg. large intestine tumors/mouse / Avg. small intestine tumor size / Avg. small intestine tumors/mouse / Avg. large intestine tumor size / Avg. large intestine tumor load / Avg. small intestine tumor load / Total Avg. overall tumor load / Total Avg. overall tumor size / Total Avg. tumors/mouse: 10 g/day human equivalent dose (3% wt.) or sulindac 320 ppm; for Total small intestine tumors/group / Avg. large intestine tumors/mouse / Avg. small intestine tumor size / Avg. small intestine tumors/mouse / Avg. large intestine tumor size / Avg. large intestine tumor load / Avg. small intestine tumor load / Total large intestine tumors/group / Total large intestine tumors/group, figure in brackets (animals bearing tumors/animals in group) / Total Avg. overall tumor load / Total Avg. overall tumor size / Total Avg. tumors/mouse: seven weeks; for Avg. large intestine tumors/mouse / Avg. small intestine tumor size / Avg. small intestine tumors/mouse / Avg. large intestine tumor size / Avg. large intestine tumor load / Avg. small intestine tumor load / Total Avg. overall tumor load / Total Avg. overall tumor size / Total Avg. tumors/mouse: mean ± SEM; for Avg. large intestine tumor size: only animals bearing colonic tumors; for Avg. large intestine tumor load / Avg. small intestine tumor load: tumor number × tumor size; for Total large intestine tumors/group / Total large intestine tumors/group, figure in brackets (animals bearing tumors/animals in group): fatty acid ethyl ester 10 g/day human equivalent dose (3% wt.) in US17 diet or sulindac 320 ppm; for Total Avg. overall tumor load / Total Avg. overall tumor size / Total Avg. tumors/mouse: large and small intestine
Protocol: The efficacy of select n-3 and n-6 polyunsaturated fatty acids was evaluated in the Min/+ mouse model of intestinal cancer. The following fatty acid ethyl esters were tested for their effect on intestinal polyp formation: 1) ALA-EE; 2) SDA-EE; 2) EPA-EE; 4) DHA-EE; 5) GLA-EE ([…], 18:3 n-6); and 6) CLA-EE (conjugated linoleic acid; c9t11-18:2 (77%)+c9c11-18:2 (18%)+other isomers (5%)).
These fatty acid ethyl esters were added to the US17 diet to provide 10 g/day human equivalent dose (3% wt.). The NSAID, sulindac (320 ppm), served as the positive control. In order to maintain a 17% fat (37 en%) content in the US17 diet, oleic acid (18:1 n-9) was removed from the US17 diet in an amount equal to the amount of the fatty acid ethyl ester that was added. Mice were received at approximately five weeks of age and were fed the test diets upon receipt. After seven weeks on the respective test diet, the mice were sacrificed and the intestinal polyps were counted and measured.

[2] = test system: HepG2 cells; assay: Uptake of 14C-ALA, 14C-SDA and 14C-EPA by HepG2 cells; format: in vitro ADME
Protocol: To a culture medium containing HepG2 cells was added 20 μM ^14C-ALA, ^14C-SDA or ^14C-EPA complexed to fatty acid free BSA. The amount of ^14C-ALA, ^14C-SDA or ^14-EPA EPA Taken up by the HepG2 cells was measured 6 hours, 24 hours and 48 hours after addition of the fatty acid. A scintillation counter was used to measure the total amount of radioactivity in the HepG2 cells and the amount remaining in the medium.

Row | radiolabeled fatty acid taken up by the cells ([2]; 20 μM complexed to fatty acid free BSA, within the first six hours of incubation) | uptake by HepG2 cells, comparison (FIG. 1) ([2]; 20 μM, 6, 24 and 48 hours) | Compound | effect on polyp number relative to the US17 control ([1]; 10 g/day human equivalent dose) | Total small intestine tumors/group [1] | Avg. large intestine tumors/mouse [1] | Avg. small intestine tumor size [1] | Avg. small intestine tumors/mouse [1] | Avg. large intestine tumor size [1] | Avg. large intestine tumor load [1] | Avg. small intestine tumor load [1] | Total large intestine tumors/group [1] | Total large intestine tumors/group, figure in brackets (animals bearing tumors/animals in group) [1] | Total Avg. overall tumor load [1] | Total Avg. overall tumor size [1] | Total Avg. tumors/mouse [1] | effectiveness in inhibiting polyp formation and development in the large intestine ([1]; 10 g/day human equivalent dose)
1 |  |  | conjugated linoleic acid [CLA] | appeared to increase polyp number | 409 | 1.1 ± 0.4^abcd | 1.24 ± 0.03^ab mm | 45.4 ± 8.2^a | 3.03 ± 0.52^a | 3.47 ± 1.29^ab mm | 57.84 ± 11.70^a mm | 10 | 5/9 | 61.30 ± 12.41^a mm | 1.28 ± 0.04^ab mm | 46.6 ± 8.3^a | 
2 |  |  | α-linolenic acid [ALA] |  | 364 | 0.8 ± 0.3^bcd | 1.23 ± 0.04^ab mm | 36.4 ± 6.3^ab | 2.75 ± 0.46^ab | 2.15 ± 0.83^bcd mm | 45.67 ± 8.66^ab mm | 8 | 5/10 | 45.97 ± 8.88^ab mm | 1.21 ± 0.03^bc mm | 37.2 ± 6.6^ab | marginally efficacious
3 |  |  | CCCCC/C=C\C/C=C\C/C=C\CCCCC(=O)O [GLA, γ-linolenic acid] | appeared to increase polyp number | 421 | 1.2 ± 0.4^abc | 1.30 ± 0.04^ab mm | 46.8 ± 7.1^a | 2.57 ± 0.30^ab | 3.25 ± 1.34^abc mm | 61.62 ± 10.36^a mm | 11 | 6/9 | 64.84 ± 11.05^a mm | 1.33 ± 0.04^a mm | 48.0 ± 7.4^a | 
4 | Approximately 95% | taken up equally | CC/C=C\C/C=C\C/C=C\CCCCCCCC(=O)O [ALA, α-linolenic acid] |  |  |  |  |  |  |  |  |  |  |  |  |  | 
5 |  |  | CC1=C(CC(=O)O)c2cc(F)ccc2/C1=C\c1ccc([S+](C)[O-])cc1 (centres unmarked) [Sulindac, sulindac] |  | 29 | 0.2 ± 0.2^cd | 1.25 ± 0.29^ab mm | 3.2 ± 1.1^d | 2.00 ± 0.00^ab | 0.44 ± 0.29^cd mm | 3.64 ± 1.12^d mm | 2 | 2/9 | 3.64 ± 1.27^d mm | 1.04 ± 0.08^d mm | 3.4 ± 1.2^d | 

— patent US6340705B1, “Use of α-linolenic acid metabolites for treatment or prevention of cancer” (Monsanto Technology, LLC, priority 1999, dated 2002)
